The record followed here is ChEMBL document CHEMBL1201862, “PubChem BioAssay data set” (2004).

Each structure is given as a SMILES string.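 Following 48 hours of exposure in 96-well plates, responses at five concentrations were used to interpolate endpoints linearly. The concentration for 50% growth inhibition is given as GI50.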 Activity calls are given as the source filed them. Rule as the data show it: active = GI50 up to about 1.1 µM and inactive = higher.

Among the test systems are RPMI-8226; NCI-H522; HT-29; CAKI-1; Malme-3M; SR; SNB-19; HCT-116; HOP-92; 786-0; UACC-62; U-251; LXFL 529; CCRF-CEM; XF498; MDA-N; Hs-578T; PC-3; T47D; NCI/ADR-RES.
Assay in all cases: NCI anticancer screen, dose series, 48 h

For `Cc1ccc(C2=NN(C)COC2C(F)(F)F)cc1` (stereo unspecified), the GI50 in the experiment with RPMI-8226, in the experiment on NCI-H522, with HT-29, with CAKI-1, in the experiment on Malme-3M and in the experiment with SR was > 100 µM (inactive) throughout. Further, the GI50 is > 100 µM (inactive) with SNB-19; > 100 µM (inactive) in the experiment with HCT-116; > 100 µM (inactive) in the experiment with HOP-92; > 100 µM (inactive) with 786-0; 18.6 µM (inactive) in the experiment on UACC-62; > 100 µM (inactive) in the experiment with U-251. Moreover, the GI50 in the experiment on LXFL 529 and with CCRF-CEM was > 100 µM (inactive) each time.

Consider `COC(=O)CCCN(C)c1nc(N)n[nH]1`, for which the GI50 in the experiment with RPMI-8226, with HT-29, in the experiment with SR, with SNB-19, with HCT-116 and in the experiment on 786-0 was > 100 µM (inactive) each time. Also, the GI50 in the experiment on UACC-62, with U-251, in the experiment with LXFL 529 and in the experiment with CCRF-CEM was > 100 µM (inactive) throughout.

Regarding `CCOC(=O)N1CCN(C=S)CC1`, the GI50 in the experiment on NCI-H522, in the experiment on HT-29, in the experiment with Malme-3M, with SR, with SNB-19 and in the experiment on HCT-116 was > 100 µM (inactive) in each case. Further, the GI50 in the experiment on 786-0, in the experiment on UACC-62, with U-251, with LXFL 529 and with CCRF-CEM was > 100 µM (inactive) each time.

Regarding `Cc1cc(Cl)ccc1NC(=O)CCCC(=O)C1CCCC1=O` (stereo unspecified), the GI50 with RPMI-8226, in the experiment with NCI-H522, with HT-29, in the experiment on CAKI-1, with Malme-3M and in the experiment with SNB-19 was > 100 µM (inactive) in each case. Also, the GI50 in the experiment with HCT-116, in the experiment with 786-0, in the experiment with UACC-62, in the experiment with XF498, with U-251 and with LXFL 529 was > 100 µM (inactive) throughout. Besides, the GI50 in the experiment with CCRF-CEM was > 100 µM (inactive).

`O=C(/C=C/c1ccccc1Cl)c1ccc(Cl)cc1Cl`: the GI50 is 9.55 µM (inactive) in the experiment on RPMI-8226; 14.3 µM (inactive) with HT-29; 14.4 µM (inactive) in the experiment with CAKI-1; 18.9 µM (inactive) with Malme-3M; 15.5 µM (inactive) in the experiment on SNB-19; 8.47 µM (inactive) with HCT-116. Moreover, the GI50 is 21 µM (inactive) in the experiment with HOP-92; 16.6 µM (inactive) with 786-0; 14.5 µM (inactive) in the experiment on UACC-62; 12.9 µM (inactive) with U-251; 16.2 µM (inactive) with LXFL 529; 4.02 µM (inactive) with CCRF-CEM.

As for `Cc1nc(-c2nc(C)c(C(=O)/C=C/c3ccc([N+](=O)[O-])cc3)s2)sc1C(=O)/C=C/c1ccc([N+](=O)[O-])cc1`, the GI50 in the experiment with RPMI-8226, in the experiment with HT-29, with CAKI-1, in the experiment on Malme-3M, in the experiment with SNB-19 and with HCT-116 was > 100 µM (inactive) throughout. Moreover, the GI50 with HOP-92 was > 100 µM (inactive); with 786-0 it was > 100 µM (inactive); in the experiment on UACC-62, > 100 µM (inactive); with U-251, > 100 µM (inactive); with LXFL 529, > 100 µM (inactive); in the experiment on CCRF-CEM, > 10 µM (inactive).

Turning to `Cc1cc(C)nc(NS(=O)(=O)c2ccc(Nc3c4ccc(Cl)cc4nc4c(C(=O)Nc5ccc(S(=O)(=O)N=C(N)N)cc5)cccc34)cc2)n1`, the GI50 in the experiment on RPMI-8226 is 45.4 µM (inactive); with NCI-H522, 34.4 µM (inactive); in the experiment with HT-29 it was > 100 µM (inactive); with Malme-3M, 78.7 µM (inactive); in the experiment with SNB-19 it was > 100 µM (inactive); with HCT-116 it was 54.3 µM (inactive). Also, the GI50 in the experiment with 786-0 is > 100 µM (inactive); in the experiment with UACC-62, 70.8 µM (inactive); in the experiment with XF498, > 100 µM (inactive); in the experiment with U-251 it was 87.5 µM (inactive); in the experiment on LXFL 529 it was 66.7 µM (inactive); with CCRF-CEM, 20.6 µM (inactive).

`COc1ccccc1NC(=O)C1=C(C)NC(C)=C(C(=O)Nc2ccccc2OC)C1c1cccc2ccccc12`: the GI50 is 9.29 µM (inactive) in the experiment with RPMI-8226; 82.8 µM (inactive) in the experiment with HT-29; 68.1 µM (inactive) in the experiment on CAKI-1; 38.6 µM (inactive) in the experiment on Malme-3M; 53 µM (inactive) with SNB-19; 23.8 µM (inactive) in the experiment with HCT-116. The GI50 in the experiment on HOP-92 was 1.38 µM (inactive); in the experiment on 786-0 it was > 100 µM (inactive); in the experiment with UACC-62 it was > 100 µM (inactive); with XF498 it was 45.3 µM (inactive); in the experiment with U-251 it was > 100 µM (inactive); in the experiment with LXFL 529 it was 28.1 µM (inactive). For the same compound, the GI50 with CCRF-CEM was 20.7 µM (inactive).

As for `CCO/C(CCn1[nH]c(=O)c(Cl)c(Cl)c1=O)=N\NC(=O)C(=O)NN`, the GI50 in the experiment with RPMI-8226, in the experiment with NCI-H522, in the experiment on HT-29, in the experiment on CAKI-1, with Malme-3M and in the experiment with SNB-19 was > 100 µM (inactive) in each case. The GI50 with 786-0, with UACC-62, in the experiment with XF498, with U-251, with LXFL 529 and in the experiment on CCRF-CEM was > 100 µM (inactive) in each case.

Take `Cc1cccc(NC(=O)Cc2nc3ccccc3s2)c1C`: the GI50 in the experiment with RPMI-8226, in the experiment with NCI-H522, in the experiment with HT-29, with CAKI-1, in the experiment on Malme-3M and in the experiment with SNB-19 was > 100 µM (inactive) each time. For the same compound, the GI50 in the experiment with 786-0, with UACC-62, in the experiment with XF498, in the experiment with LXFL 529 and with CCRF-CEM was > 100 µM (inactive) each time.

In the case of `C#CCNC(=O)ON1C(=O)CCC1=O`, the GI50 in the experiment with RPMI-8226, with NCI-H522, in the experiment with HT-29, in the experiment on Malme-3M, in the experiment on SNB-19 and in the experiment on HCT-116 was > 100 µM (inactive) in each case. Moreover, the GI50 in the experiment with 786-0, in the experiment on UACC-62, in the experiment on U-251, in the experiment on LXFL 529 and with CCRF-CEM was > 100 µM (inactive) each time.

On to `N=S(c1ccccc1[N+](=O)[O-])c1ccccc1[N+](=O)[O-]`, for which the GI50 is 1.14 µM (inactive) with RPMI-8226; 0.494 µM (active) with NCI-H522; 1.36 µM (inactive) in the experiment with MDA-N; 2.07 µM (inactive) in the experiment on CAKI-1; 2.72 µM (inactive) with Malme-3M; 4.68 µM (inactive) with Hs-578T. Also, the GI50 was 9.33 µM (inactive) with SNB-19; 1.23 µM (inactive) in the experiment with HCT-116; 1.89 µM (inactive) in the experiment on HOP-92; 1.38 µM (inactive) in the experiment on 786-0; 1.46 µM (inactive) in the experiment on PC-3; 3.45 µM (inactive) in the experiment with UACC-62. Besides, the GI50 in the experiment on T47D was 311 nM (active); in the experiment with LXFL 529 it was 2.96 µM (inactive); in the experiment with CCRF-CEM, 1.04 µM (active).

In the case of `COc1ccc(C2[C@H]3C(=O)N(c4ccc(Cc5ccc(N6C(=O)[C@@H]7ON(c8ccccc8)C(c8ccc(OC)cc8)[C@@H]7C6=O)cc5)cc4)C(=O)[C@H]3ON2c2ccccc2)cc1` (stereo partly specified), the GI50 with RPMI-8226 is > 100 µM (inactive); in the experiment on NCI-H522 it was > 100 µM (inactive); with HT-29, > 100 µM (inactive); with CAKI-1, > 100 µM (inactive); with Malme-3M, 87.5 µM (inactive); with SR, > 100 µM (inactive). Moreover, the GI50 with SNB-19 was > 100 µM (inactive); in the experiment on HCT-116, > 100 µM (inactive); in the experiment on HOP-92 it was 49.2 µM (inactive); with 786-0 it was > 100 µM (inactive); with UACC-62, > 100 µM (inactive); in the experiment on U-251, > 100 µM (inactive). In addition, the GI50 in the experiment with LXFL 529 and in the experiment with CCRF-CEM was > 100 µM (inactive) in each case.

For the compound `O=[N+]([O-])C(=C/c1cccc2ccccc12)/C(=C\c1cccc2ccccc12)[N+](=O)[O-]`, the GI50 in the experiment on RPMI-8226 is 2.56 µM (inactive); in the experiment on NCI-H522, 1.37 µM (inactive); with HT-29, 2.21 µM (inactive); in the experiment on MDA-N it was 2.62 µM (inactive); with NCI/ADR-RES, 2.51 µM (inactive); in the experiment with CAKI-1, 2.2 µM (inactive). Moreover, the GI50 is 2.07 µM (inactive) in the experiment on Malme-3M; 0.955 µM (active) in the experiment with SR; 3.01 µM (inactive) in the experiment with Hs-578T; 4.51 µM (inactive) in the experiment with SNB-19; 2.49 µM (inactive) in the experiment on HCT-116; 1.92 µM (inactive) with HOP-92. Moreover, the GI50 with 786-0 was 1.77 µM (inactive); in the experiment with PC-3, 5.24 µM (inactive); in the experiment with UACC-62, 1.71 µM (inactive); with T47D, 3070 nM (inactive); in the experiment on U-251, 1.95 µM (inactive); in the experiment with CCRF-CEM, 0.528 µM (active).

As for `O=C(Cc1nc2ccccc2c(=O)n1-c1c(Cl)cccc1Cl)c1ccncc1`, the GI50 is 19.6 µM (inactive) in the experiment with NCI-H522; 19.6 µM (inactive) with HT-29; 23.6 µM (inactive) in the experiment on CAKI-1; 24.7 µM (inactive) in the experiment with Malme-3M; 17.8 µM (inactive) in the experiment with SR; 31.4 µM (inactive) with SNB-19. Moreover, the GI50 was 17.8 µM (inactive) with HCT-116; 13.8 µM (inactive) in the experiment on HOP-92; 24.6 µM (inactive) with 786-0; 22.7 µM (inactive) in the experiment on UACC-62; 29.6 µM (inactive) with U-251; 27.7 µM (inactive) in the experiment on LXFL 529. Moreover, the GI50 in the experiment on CCRF-CEM was 16.7 µM (inactive).
